Measurements: PMC10100877, “Identification of Small-Molecule Inhibitors of the Salmonella FraB Deglycase Using a Live-Cell Assay” (Microbiology Spectrum, 2023)
Where a name gives a salt, the structure may show the parent alone. Read-outs that look alike come from different tables or passages of the source.

Columns and labels:
[1] = tested on: wild-type Salmonella (ASD200) live cells; assay: Live-cell growth assay, concentration-response (IC50/IC90) of the top 8 purchased compounds; format: cell-based, Salmonella enterica serovar Typhimurium; settings: for IC50: read-out: IC50 with live cells, value (95% CI), concentration that inhibits growth to 50%; for IC90: read-out: IC90 with live cells, value (95% CI), concentration that inhibits growth to 90%
recombinant FraB = recombinant FraB (Salmonella enterica subsp. enterica serovar Typhimurium, UniProt Q8ZLD0); format: biochemical; settings: for IC50: read-out: IC50 with recombinant FraB (mean ± SE); for Ki: read-out: Ki′ with FraB (mean ± SD)
Chain of recombinant FraB (Q8ZLD0 1-325): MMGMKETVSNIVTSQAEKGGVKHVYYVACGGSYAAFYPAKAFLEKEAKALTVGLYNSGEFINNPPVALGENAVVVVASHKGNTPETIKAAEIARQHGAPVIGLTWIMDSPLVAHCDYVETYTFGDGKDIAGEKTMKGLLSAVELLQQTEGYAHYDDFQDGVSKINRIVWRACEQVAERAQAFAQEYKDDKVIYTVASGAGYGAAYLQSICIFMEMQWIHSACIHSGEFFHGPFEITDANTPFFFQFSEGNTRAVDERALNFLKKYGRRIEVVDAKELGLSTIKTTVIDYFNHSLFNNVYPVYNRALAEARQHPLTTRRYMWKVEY

[2] = tested on: fraB mutants of Salmonella; design: method as in PMID 27258673; settings: F-Asn made with the small-scale synthesis route; cited from earlier work
[3] = tested on: fraB mutants of Salmonella; assay: Growth inhibition (intoxication) of fraB mutants by F-Asn; format: cell-based; settings: new gram-scale preparations of F-Asn
[4] = M9 minimal medium, 5 mM glucose, 1 mM F-Asn, 17-h time point, 95% CI in brackets

Row | SMILES | IC50 ([1]; 17 h) | IC90 ([1]; 17 h) | IC50 (recombinant FraB) | IC50 [1, 4] | IC90 [1, 4] | mode of inhibition of FraB (recombinant FraB) | Ki (recombinant FraB) | IC50 [2] | IC50 [3]
1 | CCOc1ccc(N2C(=O)NC(=O)/C(=C/c3cc(Cl)c(O)c(OC)c3)C2=O)cc1 [611:D03] | 100 µM | 240 µM |  |  |  |  |  |  | 
2 | COc1ccc2[nH]c(SC)nc2c1 [1582:D17] |  |  | > 1000 µM | 143 µM | 318 µM |  |  |  | 
3 | Nc1cc(C(=O)O)ccc1Nc1ccccc1 [1609:K19, 3-amino-4-(phenylamino)benzoic acid] |  |  | 114 ± 3.8 µM | 155 µM | 411 µM | 116 ± 27; uncompetitive | 116 ± 27 µM |  | 
4 | O=c1c(=NO)c(=O)c2ccccc12 [1669:M19, triketoindan-2-oxime] |  |  | 133 ± 0.8 µM | 109 µM | 297 µM | 26 ± 4; uncompetitive | 26 ± 4 µM |  | 
5 | O=C(O)/C=C/Sc1ccccc1 [1737:K20] |  |  | > 1000 µM | 121 µM | 503 µM |  |  |  | 
6 | C/C(=N\O)C(=O)c1ccc(Cl)cc1 [1789:D13] |  |  | > 1000 µM | 183 µM | 348 µM |  |  |  | 
7 | c1ccc([B-]2(c3ccccc3)[NH2+]CCO2)cc1 [3403:P13, 2,2-diphenyl-1,3,2-oxaazaborolidine internal salt] |  |  | 35 ± 0.9 µM | 89 µM | 184 µM | 27 ± 6 uncompetitive | 27 ± 6 µM |  | 
8 | NC(=O)C[C@H](NCC(=O)[C@@H](O)[C@H](O)[C@H](O)CO)C(=O)O [F-Asn, fructose-asparagine] |  |  |  |  |  |  |  | ~20 µM | ~30 µM
